The results in this text go back to US7960381B2, “Substituted gamma lactams as therapeutic agents” (Allergan, Inc., priority 2007, dated 2011).

The data set deals with normotensive dogs. In words: Ocular surface hyperemia in normotensive dogs. Type of data set: in vivo. The conditions noted are these: once daily for 5 days. The method, then:
U.S. Pat. No. 7,091,231 describes the methods used for these in vivo tests.
5-(3-{(S)-1-[4-(1-Hydroxyhexyl)-phenyl]-5-oxo-pyrrolidin-2-yl}-propyl)-thiophene-2-carboxylic acid 2-hydroxyethyl ester (1) was tested in normotensive dogs at 0.003%, dosing once daily for 5 days. The maximum intraocular pressure (IOP) decrease from baseline was 4.4 mmHg (32%) at 30 h; the maximum ocular surface hyperemia (OSH) score was 0.9 at 30 h. This compound was also tested in laser-induced hypertensive monkeys, using one single day dose. At 0.003%, the maximum IOP decrease from baseline was 13.4 mmHg (38%) at 24 h. Compound 1 was also tested in normotensive dogs at 0.001%, dosing once daily for 5 days. The maximum intraocular pressure (IOP) decrease from baseline was 3.75 mmHg (23%) at 76 h; the maximum ocular surface hyperemia (OSH) score was 1.1 at 74 h. Compound 1 was also tested in laser-induced hypertensive monkeys, using one single day dose. At 0.001%, the maximum IOP decrease from baseline was 12.7 mmHg (31%) at 24 h.
5-(3-{(S)-1-[4-(1-Hydroxyhexyl)-phenyl]-5-oxo-pyrrolidin-2-yl}-propyl)-thiophene-2-carboxylic acid 2-morpholin-4-yl-ethyl ester (2) was tested in normotensive dogs at 0.003%, dosing once daily for 5 days. The maximum intraocular pressure (IOP) decrease from baseline was 5.9 mmHg (36%) at 52 h; the maximum ocular surface hyperemia (OSH) score was 1.1 at 50 h. This compound was also tested in laser-induced hypertensive monkeys, using one single day dose. At 0.003%, the maximum IOP decrease from baseline was 20 mmHg (53%) at 24 h.

Setting [1] is: 0.003%, maximum at 30 h (1), 50 h (2).

Each structure is given as a SMILES string.

With `CCCCCC(O)c1ccc(N2C(=O)CC[C@@H]2CCCc2ccc(C(=O)OCCO)s2)cc1` (single isomer, unassigned) [Compound 1], the “maximum ocular surface hyperemia (OSH) score” value reads like this: (0.001%, maximum at 74 h) 1.1; under setting [1], 0.9.

Consider `CCCCCC(O)c1ccc(N2C(=O)CC[C@@H]2CCCc2ccc(C(=O)OCCN3CCOCC3)s2)cc1` (single isomer, unassigned) [Compound 2], for which the “maximum ocular surface hyperemia (OSH) score” value under setting [1] was determined as 1.1.
